For one assay, the system named is peptide-specific IgG. The assay can be described thus: Absorption and elution of peptide-specific IgG (Example 1). Type of assay: binding, human. The following applies: serum of the patient of FIG. 1. As to the method:
One hundred microliters of a plasma or serum sample diluted with 0.05% Tween 20/Block Ace (registered trademark) was added to each well and allowed to be absorbed to the peptide (20 μg/well) coated on the well of the plate at 37° C. for 2 hours. After this procedure was repeated 3 times, the peptide-specific IgG level in the supernatant was measured by ELISA. The antibody bound to the peptide-coated plate in the initial adsorption step was eluted with 30 μl/well of 5 M NaCl/50 mM citrate buffer (pH 3.0) (neutralized with 0.05% Tween 20/Block Ace containing 1.0 M Tris-HCl (pH 7.5)), and the peptide-specific IgG level in the eluted fraction was measured by ELISA.

A further assay deals with peptide-reactive IgG. Put plainly: ELISA of anti-C-35 and anti-NS5A-2132 IgG in sera: cross reactivity, HLA and genotype restriction (Example 3). The assay is classed as binding, human. The source says:
Two peptides with a purity of 90% or more were purchased from BIOSYNTHESIS (Lewisville, Tex.): HCV-1b core protein 35-44 ([…] (SEQ ID NO: 1) capable of inducing an HLA-A2-restricted CTL activity) and HCV-1b NS5A protein 2132-2140 ([…] (SEQ ID NO: 2) capable of inducing an HLA-A24-restricted CTL activity). As a negative control, peptides derived from HIV with an HLA-A2-binding motif ([…] (SEQ ID NO: 64)) and an HLA-A24-binding motif ([…] (SEQ ID NO: 63)) were used.
The level of peptide-specific IgG was measured by an enzyme-linked immunosorbent assay (ELISA). Briefly, each peptide was dissolved in dimethyl sulfoxide (DMSO) and stored at −20° C. The peptide (20 μg/well) diluted with 0.1 M carbonate buffer containing disuccinimidyl suberate (DSS) (PIERCE, Rockford, Ill.) as a chemical crosslinker was bound to an ELISA plate. The wells were washed 3 times with 0.05% Tween 20/PBS (PBST). Then, the plate was blocked overnight at 4° C. with Block Ace (Yukijirushi, Tokyo, Japan). A serum sample was diluted 1:100, 1:200 or 1:400 with 0.05% Tween 20/Block Ace, and 100 μl/well of the sample was added to each well. After the sample was incubated at 37° C. for 2 hours, the plate was washed 9 times with PBST, and further incubated at 37° C. for 2 hours with 100 μl/well of a 1:1000 diluted rabbit anti-human IgG (γ-chain specific) (DAKO Glostrup, Denmark). After the plate was washed 9 times, 100 μl/well of a 1:100 diluted anti-rabbit IgG-conjugated horseradish peroxidase-dextran polymer (En Vision, DAKO) was added to each well, and then the plate was incubated at room temperature for 40 minutes. After the plate was washed, 100 μl/well of a tetramethylbenzidine substrate solution (KPL, Guildford, UK) was added, and the reaction was stopped by the addition of 1.0 M phosphoric acid.
The cross reactivity of two antibodies reactive to the peptides derived from HCV-1b was examined. The sera obtained from 60 HCV patients and patients who are not included in the cohort study (CH, n=22, LC, n=21 and HCC, n=17) were examined for reactivity to the peptides of the core 35-44 (C-35) and NS5A 2132-2140 (NS5A-2132). The sera were also obtained from 24 subjects with an autoimmune disease, 17 cases of HBV infection and 10 cases of HTLV-1 infection. The sera obtained from 37 HDs were used as a negative control. The level of peptide-reactive IgG contained in the serially diluted serum samples was measured by ELISA. The results are reported by the absorbance (OD) of each sample. The representative results of OD at a serum dilution of 100:1 are shown. The cut-off value was set at 0.093 (mean+2 SD of OD from HDs). The statistical analysis was carried out using the χ^2-test. Values of P<0.05 were considered statistically significant.
Then, the correlation between the HLA-class IA phenotype and the level of anti-C-35 IgG or anti-NS5A-2132 IgG was examined in 29 patients with a disease associated with HCV. The HLA-class IA phenotype was determined by a standard serological method. Nine patients were HLA-A2^+, 13 patients were A24^+, and the remaining 7 patients were A2^−-A24^−. The levels of Anti-C-35 and anti-NS5A-2132 were measured by a standard ELISA and the OD value of each patient at a serum dilution of 100:1 is shown in the figure.
Also the correlation between the HCV genotype and the level of anti-C-35 IgG or anti-NS5A-2132 IgG was examined in a double blind study in patients infected with HCV-1b (n=29), HCV-2a (n=16) and HCV-2b (n=3). The HCV genotype was determined by directly sequencing HCV in the serum of the patient. The levels of anti-C-35 and anti-NS5A-2132 were measured by a standard ELISA and the OD value of each patient at a serum dilution of 100:1 is shown. The cut-off value was set at 0.093 (mean+2 SD of OD from HDs).
Then, the sera of CH (n=24), LC (n=22), HCC (n=26) and HDs (n=9) were newly prepared and the level of anti-NS5A-2132 IgG was measured (FIG. 26). […]
On the technique in general: ELISA stands for enzyme-linked immunosorbent assay.

The mark [1] stands for this setting: out of 60, cut-off 0.093 OD, serum dilution 100:1.

Consider YLLPRRGPRL [No. 40], for which, in the assay with peptide-specific IgG, the “absorption of the antibody reactive to C-35 peptide by the peptide” value is “absorbed by C-35” and the “elution of the antibody reactive to C-35 peptide” value is recorded as “eluted from the C-35-adsorbed fraction”. The “IgG level among the 3 groups (CH, LC and HCC patients)” value in the assay with peptide-reactive IgG is “no significant difference in the IgG level among the 3 groups”. For the same sequence, the “detection of the anti-peptide antibody by HLA-class IA phenotype” value in the assay on peptide-reactive IgG (29 patients: HLA-A2+, A24+, A2-A24-) is given as “detected in the majority of the patients”. The “positivity of sera from the other (not HCV) groups” value in the assay with peptide-reactive IgG (autoimmune disease, HBV, HTLV-1) is reported as “not positive”. Moreover, in the assay with peptide-reactive IgG (out of 10 cases), the “number of HTLV-1+ subjects with a significant level of anti-peptide IgG” value was 8. Moreover, in the assay on peptide-reactive IgG (setting [1]), the “number of HCV-positive patients with a significant level of anti-peptide IgG” value is reported as 56 and the “percentage of HCV-positive patients with a significant level of anti-peptide IgG” value came out at 93.3%. Moreover, the “number of patients with the anti-peptide antibody detected” value (“number of patients” below) with peptide-reactive IgG (patients infected with HCV-1b, out of 30) came to 26. The “number of patients” value in the assay on peptide-reactive IgG (patients infected with HCV-2a, out of 15 (C-35) or 16 (NS5A-2132)) worked out at 15. In the assay on peptide-reactive IgG (patients infected with HCV-2b, out of 3), the “number of patients” value is 3.

Source of the values: patent US20080063643A1, “Peptide Derived From Hepatitis C Virus” (priority 2003, published 2008).
